In this series the target is Voltage-gated inwardly rectifying potassium channel KCNH2 (Homo sapiens, UniProt Q12809). In words: hERG Inhibition Assay: Compounds were solubilised to 100 mM in DMSO before dilution in HBPS to 300 μM. 6-Point concentration-response curves were generated using 3.16-fold serial dilutions from the top test concentration. Procedure: Electrophysiological recordings were made from a Chinese Hamster Ovary cell line stably expressing the full-length hERG potassium channel. Single cell ionic currents were measured in whole-cell patch clamp configuration at room temperature (21-23° C.) using the QPatch HTX platform (Sophion). Intracellular solution contained (mM): 120 KF, 20 KCl, 10 EGTA, 10 HEPES and was buffered to pH 7.3. The extracellular solution (HEPES-buffered physiological saline, HBPS) contained (mM): 145 NaCl, 4 KCl, 2 CaCl2, 1 MgCl2, 10 HEPES, 10 glucose, buffered to pH7.4. Cells were clamped at a holding potential of −80 mV. Cells were stepped to +20 mV for 2 s then −40 mV for 3s before returning to the holding potential. This sweep was repeated 10 times at 10 s intervals. hERG currents were measured from the tail step and referenced to the holding current.

SMILES strings stand for the structures.

Voltage-gated inwardly rectifying potassium channel KCNH2, sequence (Q12809 whole entry): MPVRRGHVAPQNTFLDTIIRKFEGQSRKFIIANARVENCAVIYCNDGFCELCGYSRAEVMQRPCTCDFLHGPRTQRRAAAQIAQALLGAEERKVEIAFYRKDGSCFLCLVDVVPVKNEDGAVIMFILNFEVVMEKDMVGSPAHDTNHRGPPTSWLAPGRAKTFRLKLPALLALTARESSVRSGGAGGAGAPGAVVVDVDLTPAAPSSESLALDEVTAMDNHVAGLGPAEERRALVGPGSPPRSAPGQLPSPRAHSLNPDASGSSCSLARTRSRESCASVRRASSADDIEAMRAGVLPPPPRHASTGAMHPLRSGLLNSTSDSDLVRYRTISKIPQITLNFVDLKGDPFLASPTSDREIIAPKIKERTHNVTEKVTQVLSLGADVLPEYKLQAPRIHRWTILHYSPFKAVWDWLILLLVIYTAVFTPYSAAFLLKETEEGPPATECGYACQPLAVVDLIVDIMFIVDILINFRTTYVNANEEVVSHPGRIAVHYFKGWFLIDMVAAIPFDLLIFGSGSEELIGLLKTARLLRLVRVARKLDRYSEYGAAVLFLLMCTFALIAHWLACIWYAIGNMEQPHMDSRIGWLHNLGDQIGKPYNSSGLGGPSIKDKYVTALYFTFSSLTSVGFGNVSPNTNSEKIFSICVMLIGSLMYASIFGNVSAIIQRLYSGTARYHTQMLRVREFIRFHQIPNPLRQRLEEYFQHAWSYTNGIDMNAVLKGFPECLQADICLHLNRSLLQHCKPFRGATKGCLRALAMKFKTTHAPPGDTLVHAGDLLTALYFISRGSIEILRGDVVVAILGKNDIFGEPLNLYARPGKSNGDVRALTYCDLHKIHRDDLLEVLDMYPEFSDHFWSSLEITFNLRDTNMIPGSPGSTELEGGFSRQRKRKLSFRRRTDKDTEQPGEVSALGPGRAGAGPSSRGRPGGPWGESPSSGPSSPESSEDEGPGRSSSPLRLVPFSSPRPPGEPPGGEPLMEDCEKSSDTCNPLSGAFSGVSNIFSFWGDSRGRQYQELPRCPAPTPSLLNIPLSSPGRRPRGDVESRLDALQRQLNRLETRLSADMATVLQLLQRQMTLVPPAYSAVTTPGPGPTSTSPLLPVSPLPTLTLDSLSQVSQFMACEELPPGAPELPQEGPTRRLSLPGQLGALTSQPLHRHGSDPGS

Turning to `Cn1c(=O)cnc2cc(F)c(OCCNC[C@H]3CN(c4cnc5c(n4)NC(=O)CO5)C(=O)O3)nc21`, the IC50 was 98 µM.

The values above are taken from ChEMBL document CHEMBL5729608, “Oxazolidinone antibiotic compounds and process of preparation” (2023).
